In paper PMC5693757 (Journal of molecular biology, 2017):
Values belong to the molecule of their own block, whether it stands above or below them.

Tests used:
Format in all cases: binding
ARL2 [1] = molecular target: T1, ARL2 (Homo sapiens, UniProt P36404); test: radioligand nitrocellulose filter trapping
ARL2 [2] = molecular target: T1, ARL2; test: HDX-MS
ARL2 [3] = molecular target: T1, ARL2; test: real-time mant fluorescence association/dissociation kinetics

T1 sequence (P36404 2-184): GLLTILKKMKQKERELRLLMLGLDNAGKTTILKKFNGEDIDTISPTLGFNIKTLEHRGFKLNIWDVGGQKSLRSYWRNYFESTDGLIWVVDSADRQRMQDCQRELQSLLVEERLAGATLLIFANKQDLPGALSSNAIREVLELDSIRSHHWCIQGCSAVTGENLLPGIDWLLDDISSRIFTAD

Molecule: Nc1nc2c(ncn2[C@@H]2O[C@H](COP(=O)(O)OP(=O)(O)OP(O)(O)=S)[C@@H](O)[C@H]2O)c(=O)[nH]1 [GTPγS]
radioligand nitrocellulose filter trapping; HDX-MS (ARL2 [1]): Human ARL2 monomer, exogenously expressed and purified from E. coli or HEK cells, bound GTPγS to similar stoichiometries

Molecule: Nc1nc2c(ncn2[C@@H]2O[C@H](COP(=O)(O)OP(=O)(O)O)[C@@H](O)[C@H]2O)c(=O)[nH]1 [GDP]
HDX-MS (ARL2 [2]): addition of GDP to ARL2 (apo→GDP) resulted in large protection to deuterium uptake at the conserved nucleotide-binding motifs G1 and G4

Kd (ARL2 [3]): 0.59 µM
Molecule: mant-Gpp(NH)p
